Bounds are passed on as bounds.

For data set [1] the following is noted: cited from earlier work.
The subject of data set [2] is pregnant women with major depressive disorder. Put plainly: Depression level on the 17-item Hamilton Rating Scale for Depression. The format is in vivo, human. Particulars: for Mean HRS-D score: fluoxetine 10 to 80 mg daily.
Setting [3] is: among the 16 subjects with 2 or more repeated depression scores.

Consider `CNCCC(Oc1ccc(C(F)(F)F)cc1)c1ccccc1` (stereo not drawn) [FLX, fluoxetine], for which the Expected half-life in data set [1] is 48 to 96 h. In data set [1], the “Time to reach steady-state concentration” value is on record as at most 23 days. Further, the “Mean HRS-D score” value in data set [2] (12 weeks postpartum) was 7.6 ± 6.5; in data set [2] (20 weeks of gestation), 7.3 ± 3.3; in data set [2] (30 weeks of gestation), 8.7 ± 5.6; in data set [2] (36 weeks of gestation), 7.1 ± 3.2; in data set [2] (during delivery), 8.3 ± 5.9. In addition, the “Subjects with mild to moderate depression levels (HRS-D 12–22)” value in data set [2] (setting [3]) is on record as 3 subjects. For the same compound, in data set [2] (setting [3]), the “Subjects with remitted depression (HRS-D ≤8)” value worked out at 13 subjects.

The record behind these values is publication PMC3109731 (Journal of clinical psychopharmacology, 2010).
